From PubChem BioAssay AID1963864 (Molecular Pharmacology Branch, DTP, NCI, 2024)

System: KRAS PDC multicell spheroid viability
Assay: Anticancer human tumor 521955-158-R6-J3-PDC patient-derived pancreatic carcinoma cell line growth inhibition [KRAS2]
Details: for IC50: curve of first compound; for viability, T/C: stronger effect = lower value
Procedure, shortened: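 Combination screen of spheroid viability in tumor-cell co-cultures with endothelial (HUVEC) and mesenchymal stem cell stroma. Each agent was tested in half-log dilutions, topping at clinical Cmax or at 10 microM without a known Cmax.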

[1] = second compound 0.1 µM, first compound 0.0316 µM
[2] = second compound 0.1 µM, first compound 0.1 µM
[3] = second compound 0.1 µM, first compound 0.316 µM
[4] = second compound 0.1 µM, first compound 1 µM
[5] = second compound 0.1 µM, first compound 3.16 µM
[6] = second compound 0.1 µM, first compound 10 µM
[7] = second compound 0.316 µM, first compound 0.0316 µM
[8] = second compound 0.316 µM, first compound 0.1 µM
[9] = second compound 0.316 µM, first compound 0.316 µM
[10] = second compound 0.316 µM, first compound 1 µM
[11] = second compound 0.316 µM, first compound 3.16 µM
[12] = second compound 0.316 µM, first compound 10 µM
[13] = second compound 1 µM, first compound 0.0316 µM
[14] = second compound 1 µM, first compound 0.1 µM
[15] = second compound 1 µM, first compound 0.316 µM
[16] = second compound 1 µM, first compound 1 µM
[17] = second compound 1 µM, first compound 3.16 µM
[18] = second compound 1 µM, first compound 10 µM
[19] = second compound 3.16 µM, first compound 0.0316 µM
[20] = second compound 3.16 µM, first compound 0.1 µM
[21] = second compound 3.16 µM, first compound 0.316 µM
[22] = second compound 3.16 µM, first compound 1 µM
[23] = second compound 3.16 µM, first compound 3.16 µM
[24] = second compound 3.16 µM, first compound 10 µM
[25] = second compound 10 µM, first compound 0.0316 µM
[26] = second compound 10 µM, first compound 0.1 µM
[27] = second compound 10 µM, first compound 0.316 µM
[28] = second compound 10 µM, first compound 1 µM
[29] = second compound 10 µM, first compound 3.16 µM
[30] = second compound 10 µM, first compound 10 µM
[31] = second compound 0.1 µM, first compound 0.00316 µM
[32] = second compound 0.1 µM, first compound 0.01 µM
[33] = second compound 0.316 µM, first compound 0.00316 µM
[34] = second compound 0.316 µM, first compound 0.01 µM
[35] = second compound 1 µM, first compound 0.00316 µM
[36] = second compound 1 µM, first compound 0.01 µM
[37] = second compound 3.16 µM, first compound 0.00316 µM
[38] = second compound 3.16 µM, first compound 0.01 µM
[39] = second compound 10 µM, first compound 0.00316 µM
[40] = second compound 10 µM, first compound 0.01 µM
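Further: drug exposure lasted seven days.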
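Wherever viability, T/C is given: 100% = DMSO vehicle wells and lower means fewer viable cells.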

In the case of `CC(C)NCC(C(=O)N1CCN(c2ncnc3c2C(C)CC3O)CC1)c1ccc(Cl)cc1` (stereo not given) + COc1cc2nc(C)nc(NC(C)c3cc(N)cc(C(F)(F)F)c3)c2cc1OC1CCOC1, the IC50 (second compound 0.1 µM) is reported as over 10000 nM, the IC50 (second compound 0.316 µM) is reported as over 10000 nM and the IC50 (second compound 1 µM) is reported as over 10000 nM. The IC50 (second compound 3.16 µM) was over 10000 nM, the IC50 (second compound 10 µM) was under 31.6 nM and the viability, T/C [1] was 96.1%. It also gave a viability, T/C [2] of 90.2%, a viability, T/C [3] of 76.1% and a viability, T/C [4] of 84.9%. For the same molecule, the viability, T/C [5] was 72.8%, the viability, T/C [6] was 71.8% and the viability, T/C [7] was 83.8%. It also gave a viability, T/C [8] of 79%, a viability, T/C [9] of 75.7% and a viability, T/C [10] of 70.3%. For the same molecule, the viability, T/C [11] was 77.7%, the viability, T/C [12] was 64.6% and the viability, T/C [13] was 82.3%. The viability, T/C [14] was 83.8%, the viability, T/C [15] was 73.5% and the viability, T/C [16] was 69.2%. For the same molecule, the viability, T/C [17] was 70.5%, the viability, T/C [18] was 59.6% and the viability, T/C [19] was 63.3%. The viability, T/C [20] was 62.1%, the viability, T/C [21] was 67.2% and the viability, T/C [22] was 63.7%. It also gave a viability, T/C [23] of 72.1%, a viability, T/C [24] of 67.7% and a viability, T/C [25] of 44.1%. For the same molecule, the viability, T/C [26] was 40.2%, the viability, T/C [27] was 46.1% and the viability, T/C [28] was 28.4%. For the same molecule, the viability, T/C [29] was 27.1% and the viability, T/C [30] was 16.7%.

`CCN1CCN(Cc2ccc(Nc3ncc(F)c(-c4cc(F)c5nc(C)n(C(C)C)c5c4)n3)nc2)CC1` + COc1cc2nc(C)nc(NC(C)c3cc(N)cc(C(F)(F)F)c3)c2cc1OC1CCOC1 was tested, and the IC50 (second compound 0.1 µM) was over 1000 nM, the IC50 (second compound 0.316 µM) was over 1000 nM and the IC50 (second compound 1 µM) was over 1000 nM. For the same molecule, the IC50 (second compound 3.16 µM) was over 1000 nM, the IC50 (second compound 10 µM) was under 3.16 nM and the viability, T/C [31] was 105%. For the same molecule, the viability, T/C [32] was 88%, the viability, T/C [1] was 69.7% and the viability, T/C [2] was 83.9%. The viability, T/C [3] was 73.7%, the viability, T/C [4] was 101% and the viability, T/C [33] was 93.8%. The viability, T/C [34] was 84.5%, the viability, T/C [7] was 88.3% and the viability, T/C [8] was 69.8%. For the same molecule, the viability, T/C [9] was 71.8%, the viability, T/C [10] was 88.8% and the viability, T/C [35] was 90.7%. For the same molecule, the viability, T/C [36] was 84.1%, the viability, T/C [13] was 86.1% and the viability, T/C [14] was 75.6%. The viability, T/C [15] was 71.5%, the viability, T/C [16] was 86.8% and the viability, T/C [37] was 87.1%. For the same molecule, the viability, T/C [38] was 82.1%, the viability, T/C [19] was 79.1% and the viability, T/C [20] was 66.8%. The viability, T/C [21] was 69.8%, the viability, T/C [22] was 77.4% and the viability, T/C [39] was 33.4%. The viability, T/C [40] was 33.6%, the viability, T/C [25] was 40.5% and the viability, T/C [26] was 55.1%. It also gave a viability, T/C [27] of 17.6% and a viability, T/C [28] of 10%.

Work on `CCNC(=O)CC1N=C(c2ccc(Cl)cc2)c2cc(OC)ccc2-n2c(C)nnc21` (stereo not given) + COc1cc2nc(C)nc(NC(C)c3cc(N)cc(C(F)(F)F)c3)c2cc1OC1CCOC1 yielded an IC50 (second compound 0.1 µM) of over 10000 nM, an IC50 (second compound 0.316 µM) of over 10000 nM and an IC50 (second compound 1 µM) of over 10000 nM. It also gave an IC50 (second compound 3.16 µM) of over 10000 nM, an IC50 (second compound 10 µM) of 38.2 nM and a viability, T/C [1] of 91.4%. For the same molecule, the viability, T/C [2] was 87.3%, the viability, T/C [3] was 75.6% and the viability, T/C [4] was 75.2%. The viability, T/C [5] was 70.5%, the viability, T/C [6] was 75.8% and the viability, T/C [7] was 95.6%. For the same molecule, the viability, T/C [8] was 103%, the viability, T/C [9] was 76.3% and the viability, T/C [10] was 72.4%. It also gave a viability, T/C [11] of 68.5%, a viability, T/C [12] of 73.1% and a viability, T/C [13] of 83.7%. For the same molecule, the viability, T/C [14] was 86.2%, the viability, T/C [15] was 74.1% and the viability, T/C [16] was 65.6%. It also gave a viability, T/C [17] of 69.5%, a viability, T/C [18] of 66.8% and a viability, T/C [19] of 70.8%. The viability, T/C [20] was 71.3%, the viability, T/C [21] was 66.5% and the viability, T/C [22] was 73.8%. It also gave a viability, T/C [23] of 60.7%, a viability, T/C [24] of 75.4% and a viability, T/C [25] of 48.7%. For the same molecule, the viability, T/C [26] was 52%, the viability, T/C [27] was 39.5% and the viability, T/C [28] was 34.2%. The viability, T/C [29] was 40% and the viability, T/C [30] was 28.4%.

`Cn1ncnc1[C@H]1c2n[nH]c(=O)c3cc(F)cc(c23)N[C@@H]1c1ccc(F)cc1` + COc1cc2nc(C)nc(NC(C)c3cc(N)cc(C(F)(F)F)c3)c2cc1OC1CCOC1 gave an IC50 (second compound 0.1 µM) of over 100 nM, an IC50 (second compound 0.316 µM) of over 100 nM and an IC50 (second compound 1 µM) of over 100 nM. For the same molecule, the IC50 (second compound 3.16 µM) was over 100 nM, the IC50 (second compound 10 µM) was under 0.316 nM and the viability, T/C (second compound 0.1 µM, first compound 0.000316 µM) was 96.2%. It also gave a viability, T/C (second compound 0.1 µM, first compound 0.001 µM) of 94.9%, a viability, T/C [31] of 86.8% and a viability, T/C [32] of 87.8%. It also gave a viability, T/C [1] of 94%, a viability, T/C [2] of 93.1% and a viability, T/C (second compound 0.316 µM, first compound 0.000316 µM) of 90.5%. For the same molecule, the viability, T/C (second compound 0.316 µM, first compound 0.001 µM) was 92.6%, the viability, T/C [33] was 86.7% and the viability, T/C [34] was 87.8%. The viability, T/C [7] was 87.3%, the viability, T/C [8] was 84.2% and the viability, T/C (second compound 1 µM, first compound 0.000316 µM) was 83.2%. The viability, T/C (second compound 1 µM, first compound 0.001 µM) was 78.3%, the viability, T/C [35] was 80.5% and the viability, T/C [36] was 86.6%. For the same molecule, the viability, T/C [13] was 82.3%, the viability, T/C [14] was 82.6% and the viability, T/C (second compound 3.16 µM, first compound 0.000316 µM) was 68.2%. It also gave a viability, T/C (second compound 3.16 µM, first compound 0.001 µM) of 73.9%, a viability, T/C [37] of 71.5% and a viability, T/C [38] of 72.3%. The viability, T/C [19] was 71.8%, the viability, T/C [20] was 74.9% and the viability, T/C (second compound 10 µM, first compound 0.000316 µM) was 23.4%. The viability, T/C (second compound 10 µM, first compound 0.001 µM) was 27.8%, the viability, T/C [39] was 9.47% and the viability, T/C [40] was 25.1%. It also gave a viability, T/C [25] of 8.29% and a viability, T/C [26] of 16%.
